The text below walks through data of PMC6272778, “New Lignans and Iridoid Glycosides from Dipsacus asper Wall” (Molecules, 2015).

This assay addresses T1, HIV-1 integrase (Human immunodeficiency virus type 1 group M subtype B, UniProt P04585).
T1 construct: pre-incubated with 15 pmol integrase (IN) at 37 °C
Put plainly: HIV-1 integrase strand transfer inhibition assay (microplate, magnetic beads). The format is biochemical, human immunodeficiency virus-1 (HIV-1). Conditions: for IC50: strand transfer reaction, microplate screening method, positive control baicalein, read-out: IC50, inhibition activity against HIV-1 integrase; for HIV-1 integrase inhibition activity (in words): qualitative summary of the integrase assay. The protocol:
The assays were performed in a 96-well microplate (Corning, New York, NY, USA) in a final volume of 50 μL. The wells were washed once with the reaction buffer (25 mM/L PIPES, pH 7.0, 10 mM/L β-mercaptoethanol, 5% (w/v) glycerol, 0.1 g/L bovin serum albumin (BSA), and 10 mM/L MnCl2). The compounds were diluted with dimethyl sulfoxide (DMSO) to a final concentration of 10% DMSO into the reaction volume (v/v) and pre-incubated with 15 pmol integrase (IN) at 37 °C in the reaction buffer in the absence of MnCl2 (10 mM/L) for 10 min. Subsequently, 1.5 pM donor DNA and 15 pM target DNA were added and the reaction was initiated. After incubation for 1 h at 37 °C, […] magnetic particles (6.7 × 10^8 beads/mL) and 51.5 μL binding buffer (10 mM/L Tris–HCl, pH 7.6, 2 M/LNaCl, 20 mM/L ethylene diamine tetraacetic acid (EDTA), and 0.1% [w/v] Tween 20) were added and incubated at 20 °C for 15 min. Then the wells holding the mixture were placed in a magnetic concentrator, the supernatant was discarded, and the wells were washed 3 times with phosphate buffered saline (PBS) containing 0.1% Tween20(PBST). Subsequently, 100 μL of 1:5000 diluted alkaline phosphatase (AP) conjugate anti-DIG antibody was added and incubated for 30 min at 37 °C. Finally, the wells were washed 3 times with PBST and the magnetic beads were transferred into fresh wells; 100 μL P-nitrophenyl phosphate (P-NPP) substrate (0.1 M/L Na2CO3, pH 9.5, 6.7 mM/L P-NPP, and 2 mM/L MgCl2) was added. The plates were read at 405 nm with a Model 680 microplate reader (Bio-Rad, Hercules, CA, USA). In the assay, baicalein was used as the positive control.
The IC50 values of the samples were calculated based on the assay results after curve fitting according to a non-linear regression.

SMILES strings stand for the structures.

One may read the IC50 as the concentration that gives 50% inhibition. Consider `O=c1cc(-c2ccccc2)oc2cc(O)c(O)c(O)c12` [baicalein, reference compound], for which the IC50 was 1.37 µM.
For `COc1cc([C@@H]2OC[C@@]3(O)[C@@H]2CO[C@H]3c2cc(OC)c(O)c(OC)c2)ccc1O` [Compound 1, (+)-8-hydroxy-7,7'-bis-epi-fraxiresinol], the “HIV-1 integrase inhibition activity (in words)” value is “weak HIV-1 integrase inhibitory activities” and the IC50 came to 53.3 µM.
For `C=CC1C(OC2OC(CO)C(O)C(O)C2O)OC=C(C(=O)OC2CC3C(C(=O)OC)=COC(OC4OC(CO)C(O)C(O)C4O)C3C2C)C1CC1OC(C)C(C)O1` (stereo not drawn) [Compound 8, dipsanosides N], in that order: “weak HIV-1 integrase inhibitory activities” and 92.7 µM.
In the same order, the values of `C=CC1C(OC2OC(CO)C(O)C(O)C2O)OC=C(C(=O)OC2CC3C(C(=O)OC)=COC(OC4OC(CO)C(O)C(O)C4O)C3C2C)C1CC1OC(C)C(C)O1` (stereo not drawn) [Compound 7, dipsanoside M] are “weak HIV-1 integrase inhibitory activities” and 84 µM.
As to `COc1cc([C@@H]2OC[C@@]3(O)[C@@H]2CO[C@H]3c2ccc(O)c(OC)c2)ccc1O` [Compound 2, (+)-8-hydroxy-7,7'-bis-epi-pinoresinol], the “HIV-1 integrase inhibition activity (in words)” value is given as “weak HIV-1 integrase inhibitory activities” and the IC50 is 61.7 µM.
